For this test, the target named is T1, Human SGLT3 (Homo sapiens, UniProt Q9NY91).
T1 construct: expressed in transfected cells; host or cells: oocytes (from Nasco), injected with mRNA
T1 sequence (Q9NY91 1-659): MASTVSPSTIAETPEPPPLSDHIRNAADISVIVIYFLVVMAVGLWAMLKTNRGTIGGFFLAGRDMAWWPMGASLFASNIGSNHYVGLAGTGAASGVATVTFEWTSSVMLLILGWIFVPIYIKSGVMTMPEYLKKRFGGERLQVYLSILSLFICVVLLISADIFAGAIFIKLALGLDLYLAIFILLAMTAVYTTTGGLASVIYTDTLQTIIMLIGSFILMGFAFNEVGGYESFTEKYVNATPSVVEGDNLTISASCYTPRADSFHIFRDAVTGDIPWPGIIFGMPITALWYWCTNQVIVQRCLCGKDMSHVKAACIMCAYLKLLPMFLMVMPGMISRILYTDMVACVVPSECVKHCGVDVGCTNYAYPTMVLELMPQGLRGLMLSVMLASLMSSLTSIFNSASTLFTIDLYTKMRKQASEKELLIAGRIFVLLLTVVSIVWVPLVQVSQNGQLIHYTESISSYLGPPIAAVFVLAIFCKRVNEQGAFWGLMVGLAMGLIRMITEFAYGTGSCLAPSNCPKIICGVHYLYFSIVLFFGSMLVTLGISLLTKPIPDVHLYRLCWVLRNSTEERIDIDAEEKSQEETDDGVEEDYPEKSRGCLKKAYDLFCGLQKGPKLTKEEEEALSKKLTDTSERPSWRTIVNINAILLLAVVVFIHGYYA
Put plainly: Two-electrode voltage clamp recording of oocytes expressing human SGLT3 (DNJ-induced currents). Format: cell-based. The settings on record: 3 mM. As for the experimental part: Oocytes were obtained from Nasco (Fort Atkinson, Wisconsin, USA). Stage V–VI oocytes were injected with 50 nl of either human SGLT3 mRNA (at 1 ng/nl) or distilled water (control) and incubated at 18°C in a calcium-free solution (92 mM NaCl, 2 mM KCl, 1 mM MgCl2, 5 mM HEPES, 0.05 mg/ml gentamicin at pH 7.5) for 4–6 days before recording. The extracellular recording solution contained 92 mM NaCl, 2 mM KCl, 1.8 mM CaCl2, 1 mM MgCl2, and 5 mM HEPES at pH 7.5. Injected oocytes were impaled with 2 microelectrodes filled with 3 M KCl (resistance of ∼0.5–3 MΩ) and voltage clamped to −120 mV, at which continuous recordings were made (filtered at 5 kHz and sampled at 625 Hz). To establish the baseline in the absence of agonist, oocytes were first perfused for 85 seconds with a control buffer (92 mM NaCl, 2 mM KCl, 1.8 mM CaCl2, 1 mM MgCl2, 5 mM HEPES at pH 7.5). […] Finally, phlorizin (3 mM) was applied in the presence of 50 µM DNJ for 160 seconds. All experiments were performed at 22°C. Currents in the presence of 50 µM DNJ were subtracted from leak currents (currents in control buffer alone) to obtain DNJ-induced currents (IDNJ). Effects of compounds were calculated as: % Inhibition = 100×(IDNJ−Icmpd)/IDNJ, where Icmpd is the DNJ-induced and leak-subtracted current in the presence of a compound or DMSO. Due to lack of effect at the highest dose tested, a dose-response relationship was not examined.

For orientation: inhibition means the percentage by which the read-out fell short of the control. Lower therefore signals little suppression. In turn, `O=C(CCc1ccc(O)cc1)c1c(O)cc(O)cc1O[C@@H]1O[C@H](CO)[C@@H](O)[C@H](O)[C@H]1O` [phlorizin, reference compound] had an inhibition at 3000 µM (SGLT3-injected oocytes, 50 µM DNJ, n = 14, P<0.05) of 73.5 ± 4.2%. Further, the “effect on currents in sham-injected oocytes” value (sham (water)-injected oocytes, in the presence of 50 µM DNJ) is on record as “did not affect currents”.
